{"source": "patent US10131652B2", "about": "“Pyrimidinyloxy benzene derivatives as herbicides” (E. I. DU PONT DE NEMOURS AND COMPANY, priority 2014, dated 2018)", "experiment_in_all_cases": "Test F pre-/postemergence plant response", "assay_type_in_all_cases": "in vivo", "key": {"soybean (Glycine max)": {"test_system": "soybean (Glycine max)", "settings": "Glycine max, pre-emergence, scale 0 to 100, read-out: Plant response rating, Soybean", "excerpt": "(§1) Seeds of plant species selected from corn (Zea mays), soybean (Glycine max), velvetleaf (Abutilon theophrasti), lambsquarters (Chenopodium album), wild poinsettia (Euphorbia heterophylla), palmer pigweed (Amaranthus palmeri), waterhemp (common waterhemp, Amaranthus rudis), surinam grass (Brachiaria decumbens), large (Lg) crabgrass (Digitaria sanguinalis), Brazilian crabgrass (Digitaria horizontalis), fall panicum (Panicum dichotomiflorum), giant foxtail (Setaria faberii), green foxtail (Setaria viridis), goosegrass (Eleusine indica), johnsongrass (Sorghum halepense), ragweed (common ragweed, Ambrosia elatior), barnyardgrass (Echinochloa crus-galli), sandbur (southern sandbur, Cenchrus echinatus), arrowleaf sida (Sida rhombifolia), Italian ryegrass (Lolium multiflorum), dayflower (Virginia (VA) dayflower, Commelina virginica), field bindweed (Convolvulus arvensis), cocklebur (common cocklebur, Xanthium strumarium), momingglory (Ipomoea coccinea), nightshade (eastern black nightshade, Solanum ptycanthum), kochia (Kochia scoparia), yellow nutsedge (Cyperus esculentus), and hairy beggarticks (Bidens pilosa), were planted into a silt loam soil and treated preemergence with test chemicals formulated in a non-phytotoxic solvent mixture which included a surfactant.\n(§2) At the same time, plants from these crop and weed species and also waterhemp_RES1, (ALS & Triazine resistant common waterhemp, Amaranthus rudis), and waterhemp_RES2, (ALS & HPPD resistant common waterhemp, Amaranthus rudis) were treated with postemergence applications of test chemicals formulated in the same manner. Plants ranged in height from 2 to 18 cm for postemergence treatments (1- to 4-leaf stage).\n(§3) Treated plants and controls were maintained in a greenhouse for 14 to 21 days, after which time all species were compared to controls and visually evaluated. Plant response ratings, summarized in Table F, are based on a scale of 0 to 100 where 0 is no effect and 100 is complete control. A dash (-) response means no test result."}, "[1]": {"test_system": "lambsquarters (Chenopodium album)", "settings": "Chenopodium album, pre-emergence, scale 0 to 100, read-out: Plant response rating, Lambsquarters", "excerpt": "as §1, §2, §3"}, "[2]": {"test_system": "palmer pigweed (Amaranthus palmeri)", "settings": "Amaranthus palmeri, post-emergence, scale 0 to 100, read-out: Plant response rating, Pigweed, Palmer", "excerpt": "as §1, §2, §3"}, "[3]": {"test_system": "giant foxtail (Setaria faberii)", "settings": "Setaria faberi, pre-emergence, scale 0 to 100, read-out: Plant response rating, Foxtail, Giant", "excerpt": "as §1, §2, §3"}, "[4]": {"test_system": "green foxtail (Setaria viridis)", "settings": "Setaria viridis, pre-emergence, scale 0 to 100, read-out: Plant response rating, Foxtail, Green", "excerpt": "as §1, §2, §3"}, "[5]": {"test_system": "fall panicum (Panicum dichotomiflorum)", "settings": "Panicum dichotomiflorum, scale 0 to 100, read-out: Plant response rating, Panicum, Fall", "excerpt": "as §1, §2, §3"}, "[6]": {"test_system": "wild poinsettia (Euphorbia heterophylla)", "settings": "Euphorbia heterophylla, scale 0 to 100, read-out: Plant response rating, Poinsettia, Wild", "excerpt": "as §1, §2, §3"}, "[7]": {"test_system": "Brazilian crabgrass (Digitaria horizontalis)", "settings": "Digitaria horizontalis, scale 0 to 100, read-out: Plant response rating, Crabgrass, Brazil", "excerpt": "as §1, §2, §3"}, "[8]": {"test_system": "sandbur (southern sandbur, Cenchrus echinatus)", "settings": "Cenchrus echinatus, scale 0 to 100, read-out: Plant response rating, Sandbur", "excerpt": "as §1, §2, §3"}, "[9]": {"settings": "post-emergence, 8 g ai/ha Postemergence"}, "[10]": {"settings": "post-emergence, 16 g ai/ha Postemergence"}, "[11]": {"settings": "post-emergence, 31 g ai/ha Postemergence"}, "[12]": {"settings": "post-emergence, 62 g ai/ha Postemergence"}, "[13]": {"settings": "post-emergence, 125 g ai/ha Postemergence"}, "[14]": {"settings": "pre-emergence, 8 g ai/ha Preemergence"}, "[15]": {"settings": "pre-emergence, 16 g ai/ha Preemergence"}, "[16]": {"settings": "pre-emergence, 31 g ai/ha Preemergence"}, "[17]": {"settings": "pre-emergence, 125 g ai/ha Preemergence"}}, "note": "Read-outs that look alike come from different tables or passages of the source.", "data": [{"smiles": "FC(F)c1cc(-c2ccccc2Oc2ncc(Cl)cn2)no1", "note": "[Compound 35, 5-chloro-2-[2-[5-(difluoromethyl)-3-isoxazolyl]phenoxy]pyrimidine]", "values": [{"measurement": "plant injury at 31 g/ha", "setting": "soybean (Glycine max); 31 g ai/ha Preemergence", "result": 40, "unit": "%"}, {"measurement": "plant injury at 125 g/ha", "setting": "soybean (Glycine max); 125 g ai/ha Preemergence", "result": 90, "unit": "%"}, {"measurement": "plant injury at 62 g/ha", "setting": "soybean (Glycine max); Preemergence", "result": 70, "unit": "%"}, {"measurement": "pest or weed control at 8 g/ha", "setting": "[1]; 8 g ai/ha Preemergence", "result": 90, "unit": "%"}, {"measurement": "pest or weed control at 16 g/ha", "setting": "[1]; 16 g ai/ha, Preemergence", "result": 98, "unit": "%"}, {"measurement": "pest or weed control at 31 g/ha", "setting": "[1]; 31 g ai/ha, Preemergence", "result": 100, "unit": "%"}, {"measurement": "pest or weed control at 125 g/ha", "setting": "[1]; 125 g ai/ha, Preemergence", "result": 100, "unit": "%"}, {"measurement": "pest or weed control at 62 g/ha", "setting": "[1]; Preemergence", "result": 100, "unit": "%"}, {"measurement": "pest or weed control at 8 g/ha", "setting": "[2]; 8 g ai/ha Postemergence", "result": 60, "unit": "%"}, {"measurement": "pest or weed control at 16 g/ha", "setting": "[2]; 16 g ai/ha Postemergence", "result": 75, "unit": "%"}, {"measurement": "pest or weed control at 31 g/ha", "setting": "[2]; 31 g ai/ha Postemergence", "result": 95, "unit": "%"}, {"measurement": "pest or weed control at 62 g/ha", "setting": "[2]; 62 g ai/ha Postemergence", "result": 100, "unit": "%"}, {"measurement": "pest or weed control at 125 g/ha", "setting": "[2]; 125 g ai/ha Postemergence", "result": 100, "unit": "%"}, {"measurement": "pest or weed control at 8 g/ha", "setting": "[3]; 8 g ai/ha Preemergence", "result": 0, "unit": "%"}, {"measurement": "pest or weed control at 16 g/ha", "setting": "[3]; 16 g ai/ha Preemergence", "result": 10, "unit": "%"}, {"measurement": "pest or weed control at 31 g/ha", "setting": "[3]; 31 g ai/ha Preemergence", "result": 70, "unit": "%"}, {"measurement": "pest or weed control at 62 g/ha", "setting": "[3]; 62 g ai/ha Preemergence", "result": 70, "unit": "%"}, {"measurement": "pest or weed control at 125 g/ha", "setting": "[3]; 125 g ai/ha Preemergence", "result": 100, "unit": "%"}, {"measurement": "pest or weed control at 8 g/ha", "setting": "[4]; 8 g ai/ha Preemergence", "result": 0, "unit": "%"}, {"measurement": "pest or weed control at 16 g/ha", "setting": "[4]; 16 g ai/ha, Preemergence", "result": 0, "unit": "%"}, {"measurement": "pest or weed control at 31 g/ha", "setting": "[4]; 31 g ai/ha, Preemergence", "result": 30, "unit": "%"}, {"measurement": "pest or weed control at 125 g/ha", "setting": "[4]; 125 g ai/ha, Preemergence", "result": 98, "unit": "%"}, {"measurement": "pest or weed control at 62 g/ha", "setting": "[4]; Preemergence", "result": 75, "unit": "%"}, {"measurement": "pest or weed control at 8 g/ha", "setting": "[5]; [9]", "result": 30, "unit": "%"}, {"measurement": "pest or weed control at 16 g/ha", "setting": "[5]; [10]", "result": 40, "unit": "%"}, {"measurement": "pest or weed control at 31 g/ha", "setting": "[5]; [11]", "result": 40, "unit": "%"}, {"measurement": "pest or weed control at 62 g/ha", "setting": "[5]; [12]", "result": 50, "unit": "%"}, {"measurement": "pest or weed control at 125 g/ha", "setting": "[5]; [13]", "result": 50, "unit": "%"}, {"measurement": "pest or weed control at 8 g/ha", "setting": "[5]; [14]", "result": 0, "unit": "%"}, {"measurement": "pest or weed control at 16 g/ha", "setting": "[5]; [15]", "result": 35, "unit": "%"}, {"measurement": "pest or weed control at 31 g/ha", "setting": "[5]; [16]", "result": 100, "unit": "%"}, {"measurement": "pest or weed control at 125 g/ha", "setting": "[5]; [17]", "result": 100, "unit": "%"}, {"measurement": "pest or weed control at 62 g/ha", "setting": "[5]; pre-emergence, Preemergence", "result": 100, "unit": "%"}, {"measurement": "pest or weed control at 8 g/ha", "setting": "[6]; [9]", "result": 30, "unit": "%"}, {"measurement": "pest or weed control at 16 g/ha", "setting": "[6]; [10]", "result": 40, "unit": "%"}, {"measurement": "pest or weed control at 31 g/ha", "setting": "[6]; [11]", "result": 50, "unit": "%"}, {"measurement": "pest or weed control at 62 g/ha", "setting": "[6]; [12]", "result": 50, "unit": "%"}, {"measurement": "pest or weed control at 125 g/ha", "setting": "[6]; [13]", "result": 80, "unit": "%"}, {"measurement": "pest or weed control at 8 g/ha", "setting": "[6]; [14]", "result": 20, "unit": "%"}, {"measurement": "pest or weed control at 16 g/ha", "setting": "[6]; [15]", "result": 30, "unit": "%"}, {"measurement": "pest or weed control at 31 g/ha", "setting": "[6]; [16]", "result": 35, "unit": "%"}, {"measurement": "pest or weed control at 125 g/ha", "setting": "[6]; [17]", "result": 40, "unit": "%"}, {"measurement": "pest or weed control at 62 g/ha", "setting": "[6]; pre-emergence, Preemergence", "result": 70, "unit": "%"}, {"measurement": "pest or weed control at 8 g/ha", "setting": "[7]; [9]", "result": 10, "unit": "%"}, {"measurement": "pest or weed control at 16 g/ha", "setting": "[7]; [10]", "result": 20, "unit": "%"}, {"measurement": "pest or weed control at 31 g/ha", "setting": "[7]; [11]", "result": 30, "unit": "%"}, {"measurement": "pest or weed control at 62 g/ha", "setting": "[7]; [12]", "result": 35, "unit": "%"}, {"measurement": "pest or weed control at 125 g/ha", "setting": "[7]; [13]", "result": 40, "unit": "%"}, {"measurement": "pest or weed control at 8 g/ha", "setting": "[7]; [14]", "result": 0, "unit": "%"}, {"measurement": "pest or weed control at 16 g/ha", "setting": "[7]; [15]", "result": 95, "unit": "%"}, {"measurement": "pest or weed control at 31 g/ha", "setting": "[7]; [16]", "result": 98, "unit": "%"}, {"measurement": "pest or weed control at 62 g/ha", "setting": "[7]; pre-emergence, 62 g ai/ha Preemergence", "result": 100, "unit": "%"}, {"measurement": "pest or weed control at 125 g/ha", "setting": "[7]; [17]", "result": 100, "unit": "%"}, {"measurement": "pest or weed control at 8 g/ha", "setting": "[8]; [9]", "result": 0, "unit": "%"}, {"measurement": "pest or weed control at 16 g/ha", "setting": "[8]; [10]", "result": 0, "unit": "%"}, {"measurement": "pest or weed control at 31 g/ha", "setting": "[8]; [11]", "result": 0, "unit": "%"}, {"measurement": "pest or weed control at 62 g/ha", "setting": "[8]; [12]", "result": 0, "unit": "%"}, {"measurement": "pest or weed control at 125 g/ha", "setting": "[8]; [13]", "result": 0, "unit": "%"}, {"measurement": "pest or weed control at 8 g/ha", "setting": "[8]; [14]", "result": 0, "unit": "%"}, {"measurement": "pest or weed control at 16 g/ha", "setting": "[8]; [15]", "result": 10, "unit": "%"}, {"measurement": "pest or weed control at 31 g/ha", "setting": "[8]; [16]", "result": 10, "unit": "%"}, {"measurement": "pest or weed control at 125 g/ha", "setting": "[8]; [17]", "result": 65, "unit": "%"}, {"measurement": "pest or weed control at 62 g/ha", "setting": "[8]; pre-emergence, Preemergence", "result": 40, "unit": "%"}]}]}
